The source of these data is publication PMC9620261 (Journal of Medicinal Chemistry, 2022).

Where two headings read alike, the source gives them in different places.

Data set [1] relates to D423 (ENO1–/–) glioma cells. The data set can be described thus: In vitro cytotoxicity of prodrugs, three-cell line assay.
The conditions of data set [2]: 20% D2O, 31P NMR; for hydrolysis in human serum/plasma: 80% human plasma/serum.
In data set [3] the test system is ENO1–/– intracranial orthotopic tumors. The conditions noted are these: cited from earlier work; for effect on ENO1–/– intracranial orthotopic tumors: mice, 6: 10 mg/kg IV and IP, 5: 150 mg/kg IV and 100 mg/kg IP.
Data set [4] concerns LN319 (ENO1+/+) glioma cells. The data set can be described thus: cells. The note with it: LN-319, 144 h, read-out: IC50 LN319 (ENO1+/+), 6 day treatment.
The subject of data set [5] is D423 ENO1 (ENO1-isogenic rescue) glioma cells. The data set can be described thus: In vitro cytotoxicity of prodrugs, three-cell line assay.
For a further data set, the system named is NCI-60 cell line panel. The data set is classed as cell-based. The conditions noted are these: 10 μM, 24 h.
For data set [6] the following is noted: 80% DMEM, 20% D2O, 31P NMR.
For data set [7], the system named is LN319 (ENO1+/+) glioma cells. The conditions noted are these: read-out: IC50 LN319 (ENO1+/+); 6 day treatment.
The mark [8] stands for this setting: Glioma cell, 144 h, read-out: IC50 D423 (ENO1–/–), 6 day treatment.
Setting [9] is: Glioma cell, 144 h, read-out: IC50 D423 (ENO1–/–), 1% O2 (hypoxic), 6 days.
[10] abbreviates: read-out: IC50 D423 (ENO1–/–), 6 day treatment.

For `CC(C)(C)C(=O)OCOP(=O)(NCc1ccccc1)C1CCCN(O)C1=O` (stereo not drawn) [20b], in data set [1] (setting [8]), the IC50 was 0.243 µM.
Still for that read-out and setting: with `CC(C)OC(=O)[C@H](C)NP(=O)(OCOC(=O)C(C)(C)C)C1CCCN(O)C1=O` (stereo partly drawn) [20o] the figure was 0.202 µM.
In the case of `CC(C)OC(=O)[C@H](C)N[P@](=O)(CO[C@H](C)Cn1cnc2c(N)ncnc21)Oc1ccccc1` [TAF, tenofovir alafenamide, reference compound], the “hydrolysis in human serum/plasma” value in data set [2] is “occurs rapidly”.
For `O=C1C(P(=O)(O)O)CCCN1O` (stereo not drawn) [compound 5], the “effect on ENO1–/– intracranial orthotopic tumors” value in data set [3] is recorded as “profound tumor regression”. Further, the IC50 in data set [4] was more than 300 µM.
Turning to `CC(C)(C)C(=O)OCOP(=O)(OCOC(=O)C(C)(C)C)C1CCCN(O)C1=O` (stereo not drawn) [compound 6, POMHEX], the IC50 was found to be 0.201 µM in data set [1] (setting [9]) and 0.079 µM in data set [1] (Glioma cell, 144 h, read-out: IC50 D423 (ENO1–/–), 21% O2, 6 days). Further, the “hydrolysis in human serum/plasma” value in data set [2] is reported as “rapidly hydrolyzed to the mono-POM ester intermediate”. The drug-related adverse events entry in data set [3] (50 day in vivo evaluation) was “no drug-related adverse events were observed”. Further, in data set [3], the “effect on ENO1–/– intracranial orthotopic tumors” value is given as “profound tumor regression”.
Regarding `CC(C)OC(=O)[C@H](C)NP(=O)(Oc1ccccc1)C1CCCN(O)C1=O` (stereo partly drawn) [compound 17], the “time prodrug remains stable/intact in human serum/plasma” value in data set [2] (80% human plasma, 37 °C) was “over 9 h”. The “hydrolysis in human serum/plasma” value in data set [2] was “incomplete even after 336 h”.
`CC(=O)ON1CCCC(P(=O)(NCc2ccccc2)OCc2ccc([N+](=O)[O-])o2)C1=O` (stereo not drawn) [compound 24]: the IC50 in data set [1] (setting [9]) amounted to 0.136 µM.
Take `O=C1C(P(=O)(NCc2ccccc2)Oc2ccc(F)cc2)CCCN1O` (stereo not drawn) [compound 26, 4-Fluorophenyl N-Benzyl-P-(1-hydroxy-2-oxopiperidin-3-yl)phosphonamidate]: the IC50 in data set [1] (setting [8]) is more than 100 µM; in data set [5] (Glioma cell, 144 h, read-out: IC50 D423 ENO1 (ENO1-tg), 6 day treatment), more than 100 µM.
For `CCCCCCCCCCCCCCCCOCCCOP(=O)(O)C1CCCN(O)C1=O` (stereo not drawn) [compound 28], the “Average % Growth: Melanoma” value in the data set with NCI-60 cell line panel is reported as 5%.
As for `CC(C)C(=O)ON1CCCC(P2(=O)OCc3ccccc3O2)C1=O` (stereo not drawn) [compound 30, 3-(2-Oxido-4H-benzo[d][1,3,2]dioxaphosphinin-2-yl)-2-oxopiperidin-1-yl Isobutyrate], the “time by which no intact prodrug is detectable in human plasma/serum” value in data set [2] (80% human plasma, 37 °C) was not above 3 h. In addition, the “time by which no intact prodrug is present in cell culture media” value in data set [6] is reported as not above 3 h.
Take “Bis(cyanomethyl)(1-hydroxy-2-oxopiperidin-3-yl)phosphonate [compound 29]”: the IC50 in data set [1] (setting [10]) and in data set [7] was more than 100 µM throughout. Moreover, the “t1/2 in human plasma” value in data set [2] (80% human plasma, 37 °C) is “approximately 10 h”.
“Cyanomethyl N-Benzyl-P-(1-hydroxy-2-oxopiperidin-3-yl)phosphonamidate [compound 25]”: the IC50 was 6.68 µM in data set [1] (setting [10]); approximately 7 µM in data set [1] (read-out: IC50 in D423 cells, 6 day treatment); more than 70 µM in data set [5] (read-out: IC50 D423 ENO1 (ENO1-tg), 6 day treatment).
